Data published in ChEMBL document CHEMBL1131574, “Specific and irreversible cyclopeptide inhibitors of dipeptidyl peptidase IV activity of the T-cell activation antigen CD26” (J Med Chem, 1998).

Target: Dipeptidyl peptidase 4 (Homo sapiens, UniProt P27487)
Experiment: Inhibitory activity against hydrolysis of Gly-Pro-pNa by CD26 (Dipeptidyl peptidase IV) purified from CEM H01 cells
Format: cell-free, CCRF-CEM

Chain of Dipeptidyl peptidase 4 (P27487 whole entry): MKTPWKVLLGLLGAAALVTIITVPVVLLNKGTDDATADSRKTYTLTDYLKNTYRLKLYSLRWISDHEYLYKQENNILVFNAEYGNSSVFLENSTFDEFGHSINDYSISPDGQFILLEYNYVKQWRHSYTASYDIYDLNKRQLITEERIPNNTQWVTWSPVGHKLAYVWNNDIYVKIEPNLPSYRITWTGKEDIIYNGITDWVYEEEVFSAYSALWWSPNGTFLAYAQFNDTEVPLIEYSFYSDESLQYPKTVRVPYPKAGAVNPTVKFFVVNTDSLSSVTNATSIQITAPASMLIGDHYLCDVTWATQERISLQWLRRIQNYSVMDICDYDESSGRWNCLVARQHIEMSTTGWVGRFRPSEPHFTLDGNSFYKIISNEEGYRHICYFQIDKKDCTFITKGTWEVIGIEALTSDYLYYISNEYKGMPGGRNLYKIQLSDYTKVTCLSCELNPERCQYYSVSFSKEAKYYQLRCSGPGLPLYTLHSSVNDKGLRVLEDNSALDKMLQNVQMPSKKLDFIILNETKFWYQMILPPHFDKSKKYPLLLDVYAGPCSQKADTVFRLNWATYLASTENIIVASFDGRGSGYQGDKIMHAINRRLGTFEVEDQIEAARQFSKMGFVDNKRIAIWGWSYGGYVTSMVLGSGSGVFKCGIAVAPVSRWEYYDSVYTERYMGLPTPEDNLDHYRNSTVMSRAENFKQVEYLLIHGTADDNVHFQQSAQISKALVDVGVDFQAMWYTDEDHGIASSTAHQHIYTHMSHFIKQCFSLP

IC50: 0.03 µM
SMILES: CCCCCCCC[S+](CCCCCCCC)Cc1ccc2cc1C(=O)NCC(=O)NCC(=O)NCCCC[C@H](N)C(=O)N1CCC[C@H]1C(=O)N2
